Results as given in patent US10039729B2, “Use of kukoamine A and kukoamine B” (Tianjin Chase Sun Pharmaceutical Co., Ltd., priority 2010, dated 2018).
pIC50, pKd: −log10 of the molar value. Read-outs that look alike come from different tables or passages of the source.

Key:
[1] = Neutralization of LPS in vitro (TAL / kinetic turbidimetric limulus test); assay type: biochemical; conditions: for neutralizing activity with LPS: 1, 2 and 4 μg/ml with equal volume of LPS (2.0 ng/ml), 30 min, p<0.05 or p<0.01, dose-dependent; for pIC50: LPS 2 ng/ml, 0.5-128 μM, read-out: Half inhibitory concentration (IC50) on LPS
Protocol: 2.3.1 Methods: CL-4b was dissolved into LPS-free water to make 8 μg/ml solution, and incubated with equal volume of LPS (1 ng/mL) at 37° C. for 30 min. Subsequently, 100 μl mixed solution of CL-4b and LPS was added with equal volume of the quantitative TAL reagents dissolved in LPS-free water, gently shaked to mix the contents, and reacted at 37° C. for 60 min in kinetic tube reader. The agglutination of TAL reagent induced by the existence of non-neutralized LPS was measured. The mixture of LPS and equal volume of LPS-free water act as positive control. Each group contained three repeated tubes. The result was expressed in EU/ml, the endotoxin unit of LPS. Operation was performed according to the manufacturer's instructions of EDS-99 Bacterial Endotoxin Detecting system.
4.1 Methods: KA and KB (1, 2 and 4 μg/ml) were separately mixed with equal volume of LPS (2.0 ng/ml) and pre-incubated at 37 for 30 min; LPS control group was added with equal volume of nonpyrogenic water; LPS value was detected by kinetic turbidimetric limulus test after incubation; detection of each concentration was repeated three times; LPS content was expressed by means of mean±standard deviation; operation was performed according to the manufacturer's instructions of EDS-99 Bacterial Endotoxin Detecting system.
11.1 Methods: KB and PMB were separately diluted with LPS-free water to make solutions of 0.5, 1, 2, 4, 8, 16, 32, 64 and 128 μM; according to the methods in embodiment 4, above solutions were separately mixed with equal volume of LPS (2 ng/ml), and neutralizing activity was assayed.

CpG DNA = assay: Affinity biosensor binding with immobilized CpG DNA; conditions: for affinity with CpG DNA: 100 μM operating solution; for affinity with CpG DNA / affinity / binding with CpG DNA: 5 μl loaded; for affinity / binding with CpG DNA: 4 μM solution
Description: Immobilization of lipid A and CpG DNA: Using Optically-Based Affinity Biosensors technology, Lipid A, the biologic active centres of LPS, and CpG DNA were respectively, immobilized on the reacting surfaces of cuvettes in an IAsys plus affinity biosensor according to the manufacturer's instructions of IAsys Affinity Sensor. The end of hydrophobic side chain of lipid A was immobilized on cuvette with hydrophobic surface, and the phosphate group (active group of lipid A) at the other end was floating and exposing to the outside, which act as target spot of binding with active constituents for disease treatment in traditional Chinese medicine. The active constituents in solution were binded to lipid A through electrostatic interaction. Biotinylated CpG DNA was immobilized on the surface of a biotin cuvette by linking to avidin, which had been coated on the surface of a biotin cuvette, and then the unlabeled group of CpG DNA was floating and exposing to the outside, which act as target spot of binding with active constituents for disease treatment in traditional Chinese medicine. The active constituents in solution were binded to CpG DNA through the electrostatic interaction and embodiment.
Detection of the aqueous herbal extract: The crude drugs of 114 traditional Chinese herbs were pulverized. 1 g of each powder was added with 10 ml distilled water, boiled at 100° C. for 1.5 h, centrifuged at 4000 rpm for 20 min, filtrated and then collected the supernatant. 5 μl of aqueous herbal extracts of each herb were used to detect their binding with lipid A or CpG DNA. Here are the steps: Binding reaction: 45 μl PBS was added in cuvette; then 5 μl samples was added in cuvette; liquid were draw-out after binding response reach a plateau; Dissociation: Cuvette was washed thrice in 50 μl PBS; liquid were draw-out after dissociation reach a plateau; Regeneration: Cuvette was washed thrice in 50 μl 0.1N HCl; liquid were draw-out after regeneration reach a plateau; Cuvette was washed thrice in 50 μl PBS; next cycle was started to detect new sample after curves back to baseline levels and smoothed. Data analysis was performed using the FASTplot software after detection finished.
2.1.1 Methods: 500 g Lycii cortex was added with 5 L distilled water, soaked for 24 h, boiled at 100 for 1 h, filtered by coarse filter paper, and centrifuged at 8000 rpm/min for 30 min, and the supernatant was collected and concentrated to 1 L under reduced pressure. The supernatant was loaded onto AB-8 Macroporous adsorption resin, and eluted with distilled water and gradient ethanol (10%, 20%, 40% and 100%) successively. The eluted fractions were separately collected, and lyophilized after concentrated under reduced pressure. Five constituents were obtained, and named CL-1 to -5 according to their elution order. CL constituents were separately dissolved in PBS to make 1.0 mg/ml solution, 5 μl of which were loaded. Their binding activity with lipid A and CpG DNA were detected according to methods of embodiment 1.
2.2.1 Methods: CL-4 lyophilization powder was diluted into ultrapure water to make 100 mg/ml solution, filtered by a 0.45 μm filter membrane, loaded onto D001 cationic exchange gel column, and eluted with distilled water, 0.3 M Na2HPO4 and 0.5 M Na2HPO4 successively. The eluted fractions were separately collected, and lyophilized after concentrated under reduced pressure. Three constituents were obtained, and named CL-4a, -4b and -4c according to their elution order. CL-4 constituents were separately dissolved in PBS to make 1.0 mg/ml solution, 5 μl of which were loaded. Their binding activity with lipid A and CpG DNA were detected according to methods of embodiment 1.
3.1 Methods: KA and KB were separately dissolved to make 100 μM operating solution; 5 μl of the solution was loaded; their binding activity with lipid A and CpG DNA were detected according to methods of embodiment 1. […]

Compound	neutralizing activity with LPS [1]	affinity with CpG DNA (CpG DNA)	pIC50 [1]	affinity / binding with CpG DNA (CpG DNA)	pKd (CpG DNA; KB 0.25-4 μM, IAsys FASTfit, read-out: dissociation equilibrium constant (KD) with CpG DNA)	pKd (CpG DNA; with CpG DNA, read-out: dissociation equilibrium constant (KD = kass/kdiss))
O=C(CCc1ccc(O)c(O)c1)NCCCNCCCCNCCCNC(=O)CCc1ccc(O)c(O)c1 [KA, Kukoamine A]	significant neutralizing activity	high affinity	–	–	–	–
NCCCN(CCCCNCCCNC(=O)CCc1ccc(O)c(O)c1)C(=O)CCc1ccc(O)c(O)c1 [KB, Kukoamine B]	significant neutralizing activity	high affinity	4.83	high affinity	6.18	6.18
polymyxin B [PMB, reference compound]	–	–	5.32	almost has no binding effects	–	–
